Experimental data from US20070166414A1, “METHOD FOR ENHANCING TAMOXIFEN EFFICACY AS A CANCER THERAPEUTIC” (priority 2006, published 2007).
“Also recorded” adds a separate entry of the source.

Legend:
[1] = test system: DMBA-induced rat mammary carcinogenesis; assay: Chemoprevention study: DMBA-induced mammary tumors in rats fed experimental diets; conditions: for Survival (%): n=20; for Final tumor incidence: n=20, 114 days, * P<0.05, ** P<0.01 vs control (Fisher's exact test); for Latency (P-: P-value vs +control (DMBA) group, unpaired t-test; for Tumor burden (average tumor weight per group): in words, vs control (FIG. 2b)
Description: Chemoprevention Study. The diets were formulated by Harlan-Teklad (Madison, Wis. USA) to contain approximately the same amounts of protein, fat, and carbohydrates. The basal diet AIN-76A is free of soy products. The diets were also adjusted to contain similar amounts of methionine, cystine, and choline because these nutrients have been reported to affect mammary carcinogenesis. Daidzein and genistein were added in the basal diets as necessary (Table 1), at 140 and 105 mg/Kg of diet respectively. The selected isoflavone concentrations were based on the amounts present in the well-tolerated 16% (w/w) S PI diet (13). The tam oxifen dose of 0.125 mg/Kg diet was selected based on a previous study (24).
Virgin female Sprague-Dawley rats at 35 days of age were randomized by weight into 5 groups (20 rats per group) and fed basal AIN-76A diet. At 43 days of age, all but the control groups received basal diet supplemented with the appropriate test agents. After an additional week the animals received a single dose (12.5 mg) of DMBA intragastrically in sesame oil.
During the experimental period, the animals were weighed weekly. Palpation of mammary tumors began four weeks after animals received DMBA and continued until termination of the study. The date of appearance and location of every palpable tumor were recorded. Rats were observed daily to assess their general health. Rats were sacrificed by CO2 asphyxiation. Mammary tumors were coded by location, removed from the rat, and weighed. Sections of normal mammary tissue were also taken and either flash frozen in liquid nitrogen or formalin-fixed for paraffin embedding. The experiment and protocol was approved and performed in compliance with relevant laws and institutional guidelines according to the Animal Care Committee (01-142) and Animal Welfare Assurance (A3460.01) at the University of Illinois at Chicago.
Statistical analysis. A significant inhibition of tumor induction as achieved by administration of an inhibitor was defined as a statistically significant decrease (at 5% level) in tumor incidence, multiplicity, or latency period. Statistical comparison of tumor latency between groups was by unpaired t-test. The statistical significance of differences between mean tumor multiplicities was assessed using analysis of variance (ANOVA), and the Armitage'stest for trends in proportions (25). Tumor incidence rates were generated by the life table method, and compared by (one tailed) log-rank analysis (25).

[2] = test system: proliferating cell nuclear antigen (PCNA); assay: PCNA staining of endometrial tissue; type: in vivo, female rats; conditions: endometrium gland and stroma, diet 28 and 185 days, vs basal diet
Description: (§1) Four groups of female rats were fed the basal AIN-76A diet supplemented with: 1) vehicle (control), (2) tamoxifen (0.125 mg/Kg), (3) daidzein (140 mg/Kg), (4) tamoxifen (0.125 mg/Kg) plus daidzein (140 mg/Kg) combination. Rats were sacrificed at either 28 days (short term exposure) or 185 days (long term exposure) after diet initiation, and the endometrium was removed and processed for immunohistochemical and biochemical evaluations.

[3] = test system: 8-oxo-deoxyguanosine (8-oxo-dG); assay: LC-UV-MS-MS quantification of 8-oxo-dG (oxidative DNA damage) in normal mammary glands; type: in vivo, female Sprague-Dawley rats; conditions: in words, vs +control (DMBA); FIG. 3
Description: DNA Hydrolysis. DNA was extracted from normal mammary tissue from six different rats from each group and dissolved in water at ˜2 mg/mL. Aliquots (50-μL) containing ˜100 μg of DNA were mixed with 50 μL of buffer (50 mM ammonium acetate, 0.2 mM ZnCl2, pH 5.3), 10 μL of nuclease P1 (0.4 unit/μL), and 8 μL of alkaline phosphatase (1 unit/μL in 10 mM Tris pH 7.4) and incubated at 37° C. for 30 minutes. […] Bedford, Mass. USA). The solution was centrifuged for 15 minutes at 12,000 rpm and 4° C. just before LC-UV-MS-MS analysis. LC-UV-MS-MS Quantification of Oxidized Nucleosides. The HPLC system consisted of a ThermoFinnigan (San Jose, Calif. USA) Surveyor MS pump coupled with an autosampler, a PDA detector and a YMC (Wilmington, N.C. USA) ODS-AQ C18 column (2.0×250 mm, 5 μm), and guard column (4.0×20 mm). Absorbance detection at 240-290 nm was used for on-line HPLC quantification of dG and dC in the DNA hydrolysate, and a standard curve was prepared using standard solutions of dG and dC in the initial mobile phase. […] For DNA oxidation, the solvent system consisted of water/methanol 90:10 (v/v) at the start point and a linear gradient from 10 to 25% (v/v) methanol over 0-25 min. […] Selected reaction monitoring (SRM) was carried out using a TSQ Quantum triple quadruple mass spectrometer equipped with negative ion (for DNA oxidation) electrospray ionisation. Nitrogen was used as the sheath gas and auxiliary gas at 25 and 10 arbitrary units, respectively. The spray voltage was […]. Collision-induced dissociation (CID) was carried out using argon at 1.0-1.5 mTorr with the collision energy of 10-20 V. The span time per ion channel was 0.5 seconds during SRM. For 8-oxo-deoxyguanosine (8-oxo-dG), m/z 282>192 was selected as SRM (m/z 297>204 for the isotopically labelled internal standard). For 5-MedC, m/z 242>126 was selected as SRM (m/z 245>129 for the isotopically labelled internal standard).

[4] = LC-MS analysis of serum isoflavone levels; set-up: species or system female rats; conditions: rat, in vivo
Description: LC-MS analysis of isoflavone levels. Serum isoflavone levels of animals on the diets for four weeks without DMBA treatment were analysed. Blood was collected by orbital bleeding. Serum (400 μL) from each sample was transferred into a 2-mL Eppendorf tube. To each tube, 100 μL of 1 M (pH 5.0) buffer was added followed by vortex mixing, then 40 μL sulphatase (50 mg/mL, Sigma # S-3009) enzyme solution was added. After shaking, the mixture was incubated overnight in a 37° C. water bath (>17 h). The enzymatic hydrolysis was stopped by adding 1 mL ice-cold ethanol/acetonitrile (1:1; v/v), mixed and centrifuged at 4° C. for 15 minutes (10,000 rpm). The supernatant was removed and evaporated to dryness under vacuum. The resulting residue was reconstituted with 150 μL internal standard solution, and three aliquots (15 μL each) were analysed using LC-MS (HP 1100 LC-MS D) over an Xterra RP-18 column (2.1×100 mm, 3.5 μm). The mobile phase was 0.1% (v/v) formic acid followed by acetonitrile (containing 0.1% (v/v) formic acid). Elution was at 200 μL/min. The MSD was operated in negative electrospray ionisation mode with selected ion monitoring of m/z 253 for daidzein and internal standard (chrysin), m/z 269 for genistein, and m/z 241 for equol. Three to four samples from each group were analysed and resulting values are mean± SD.

PTEN = PTEN staining of endometrial tissue; type: in vivo, female rats; conditions: endometrium, diet 28 and 185 days
Description: as §1

endometrium DNA damage = assay: DNA damage in endometrium by comet assay; type: in vivo, female rats; conditions: diet 28 or 185 days, vs basal diet
Description: as §1

[5] = LC-MS analysis of serum isoflavone levels; type: in vivo, female rats; conditions: diet for four weeks, no DMBA; 3-4 rats per group; ± SEM
[6] = test system: implanted oestrogen-dependent MCF-7 cells; conditions: athymic mice; Cancer Research 62: 2474-2477; cited from earlier work
[7] = female, Sprague-Dawley, 4 weeks

SMILES	Survival (%) ([1]; DMBA-exposed rats on diet)	Final tumor incidence ([1]; DMBA-exposed rats on diet)	Latency (P- [1]	Tumor burden (average tumor weight per group) [1]	Mean body weight ([1]; rat, in vivo)	8-oxo-dG levels (ratio 8-oxo-dG/dG) in mammary glands [3]	Mean serum level of DAI (daidzein) [4, 7]	Mean serum level of Equol [4, 7]	Mean serum level of GEN (genistein) [4, 7]	Mean serum level of Equol [4]	Mean serum level of GEN (genistein) [4]	further results
O=c1c(-c2ccc(O)cc2)coc2cc(O)ccc12 [DAI, 7-hydroxy-3-(4-hydroxyphenyl)-4H-1-benzopyran-4-one]	95%	85	0.322	reduced tumor burden as effectively as tamoxifen	99.2	suppressed the levels of 8-oxo-dG equal to those of the group never exposed to DMBA	3.6 ± 0.9 ng/mL	115.0 ± 20.6 ng/mL	1.2 ± 4.7 ng/mL	very high concentrations	very low levels	PCNA expression ([2]; listed as daidzein): increased expression of PCNA; PCNA expression ([2]; listed as diadzein): increased PCNA; PTEN expression (PTEN; listed as daidzein): reduction in PTEN expression; PTEN expression (PTEN; listed as diadzein): reduced PTEN expression; DNA damage (comet assay) (endometrium DNA damage; listed as Daidzein): no damaging effect; DNA damage (comet assay) (endometrium DNA damage; listed as diadzein): did not affect the level of DNA damage
O=c1c(-c2ccc(O)cc2)coc2cc(O)cc(O)c12 [GEN, genistein]	95%	85	0.326	ineffective		ineffective						Mean serum level of DAI (daidzein) [5]: very low levels; Mean serum level of Equol [5]: not detectable; Mean body weight ([1]; DMBA-exposed rats on diet, control = 100.0): 100.7; Effect on tamoxifen inhibition of growth of implanted MCF-7 cells [6]: negated the inhibitory effect of tamoxifen
CC/C(=C(\c1ccccc1)c1ccc(OCCN(C)C)cc1)c1ccccc1 [TAM, tamoxifen]	90%	73*	0.013		94.4	ineffective	0.2 ± 0.0 ng/mL	0.0 ng/mL	0.8 ± 0.1 ng/mL	not detectable	very low levels	Increase of tumor latency over the control value ([1]; compared to positive control): 46%; PCNA expression [2]: increased expression of PCNA; also recorded: increased proliferating cell nuclear antigen (PCNA) expression; Mean serum level of DAI (daidzein) [4]: very low levels; PTEN expression (PTEN): reduction in PTEN expression; also recorded: reduced PTEN expression; DNA damage (comet assay) (endometrium DNA damage; listed as Tamoxifen): significantly increased DNA damage; DNA damage (comet assay) (endometrium DNA damage; listed as tamoxifen): increased DNA damage
